Values quoted from earlier work, collected in patent publication US20210008095A1, “METHODS FOR TREATING MUSCULAR DYSTROPHY” (Sarepta Therapeutics, Inc., priority 2015, published 2021).

How the values were obtained:
[1] = test system: patient cells; settings: cited from earlier work
[2] = test system: mouse model of DMD; settings: cited from earlier work

SMILES: O=C1CN(/N=C/c2ccc(-c3ccc([N+](=O)[O-])cc3)o2)C(O)=N1 [dantrolene]
- effect on antisense-mediated exon skipping [1]: enhance antisense-mediated exon skipping
- effect on antisense-mediated exon skipping [2]: enhance antisense-mediated exon skipping
